Patent publication US10092574B2, “Inhibitors of polynucleotide repeat-associated RNA foci and uses thereof” (VALORISATION-RECHERCHE, LIMITED PARTNERSHIP, priority 2013, dated 2018)

Experiments:
[1] = test system: CUGBP1; test: Western blot of CUGBP1 protein levels in myoblasts; format: cell-based, human; details: 20 μM, 7 days (FIG. 7); for reduction of CUGBP1 levels: DM1 myoblasts
Protocol: Human myoblasts were obtained from the Myosix institute associated with the Association Frangaise contre les Myopathies (AFM). Five primary myoblast lines were obtained as controls, and one line from a DM1 patient with a 3.8 Kb CTG triplet amplification corresponding to approximately 1250 CTG repeats. The human myoblasts are cultivated in HAM-F10 media (SIGMA N6635) with 15% FBS, 1% chick embryo extract, and 390 ng/ml of dexamethasone. One day before adding compounds, 2×10^5 cells were plated in 100 mm plates (for CUGBP1 western blot or RT-PCR alternative splicing assay) or 2×10^4 cells/well are seeded in 12-well plates containing 12 mm round glass coverslips (for FISH to detect RNA foci). One day after plating, media is replaced with fresh media containing the compounds at the desired concentration in this manner: the media is put in a screw-cap tube and heated at 37° C. The 20 mM compound stock in 100% DMSO is pipetted directly into the media and the tube is mixed well by inversion and gentle vortexing, and immediately overlayed on the cells. Pure DMSO is used for the control cells. Final concentrations on myoblasts are never higher than 0.5%. This procedure is repeated twice during the seven days of treatment, the media is thus replaced with fresh media containing compound every 2-3 days. Cells are collected or fixed for FISH after one week.
For Western blots, CUGBP1 was detected with the 3B1-3D11 monoclonal antibody (mAb) (SIGMA C5112) and GAPDH was detected with the 6C5 mAb (Millipore MAB374). The enhanced chemiluminescence signal (ECL) was acquired and quantified with the ChemiDoc™ MP imaging system (Bio-Rad). For alternative splicing assays, total RNA was collected with Trizol™ (Invitrogen), and 1 μg was used for reverse transcription with random primers with the RevertAid™ H Minus M-MuL RT (Fermentas) according to manufacturer's instructions. For MBNL2, PCR amplification was performed with primers 5′-[…]-3′ (SEQ ID NO:1) and 5′-[…]-3′ (SEQ ID NO:2). SERCA1 was amplified with primers 5′-[…]-3′ (SEQ ID NO:3) and 5′-[…]-3′ (SEQ ID NO:4). For TNNT2 (cardiac Troponin T), PCR was carried out with primers 5′-[…]-3′ (SEQ ID NO:5) and 5′-[…]-3′ (SEQ ID NO:6). The alternative splicing of the hnRNPA2/B1 transcript was detected with the primers 5′-[…]-3′ (SEQ ID NO:7) and 5′-[…]-3′ (SEQ ID NO:8). PCR was performed with Taq using standard conditions but the number of amplification cycles was optimized to be in the quantitative range for each gene. The products of PCR amplification were resolved on 3.5% agarose gels containing Gelred™ (Biotium) and images were acquired and quantified with the ChemiDoc™ MP imaging system (Bio-Rad). […]

[2] = test system: luciferase-CUG200 mRNA; test: Dose-response of nuclear export/translation of luciferase-CUG200 reporter mRNA in C2C12 myoblast cell line; format: cell-based, murine; details: for EC50: Mus musculus, read-out: EC50 (luciferase from luciferase-CUG200 mRNA)
Protocol: C2C12 murine myoblast cells and Phoenix retrovirus packaging cells were cultivated in DMEM supplemented with 10% FBS. Phoenix cells were transfected with the desired retroviral vector by the Calcium-Phosphate method and, 48 hours after transfection, retrovirus-containing supernatant was supplemented with polybrene and deposited on cells to infect. C2C12 Tet-Off cell lines were generated by infecting cells with the retrovirus pTet-Off IN (Clontech) and selecting for Doxycycline (Dox)-regulated clones. Cell lines expressing the LacZ-5CUG, LacZ-145CUG, LUC-5CUG or LUC-200CUG transcripts were generated by infecting C2C12 Tet-Off cells with the desired reporter construct in the pRevTRE plasmid (Clontech) and selecting for stable clones with inducible expression. The 3′UTR of human DMPK containing 5 CTG repeats or 200 CTG repeats was cloned downstream of the luciferase or beta-galactosidase open reading frames. The C2C12 cell line(s) are cultivated in media containing 1 ng/ml Dox to repress transcription of the reporter constructs.
The two compounds identified by the screening assay described above, which were named compound 15 and 32, have the structure depicted in FIG. 3. Compound 15 has a para-sulfonamide structure, and compound 32 is a benzyl methylthiophene amide. […] The dose-response effect of candidate drugs 15 and 32 on the nuclear export of luciferase-CUG200 mRNA was assessed in the C2C12 myoblast cell line. The amount of CUG repeat RNA that get exported and properly translated into luciferase in response to treatment with varying concentrations of target drugs was measured in order to determine the dose-response curves.

Structure (SMILES) | reduction of CUGBP1 levels [1] | change of CUGBP1 levels in WT cells ([1]; WT myoblasts) | concentration at which plateau / peak of maximal effect was reached [2] | EC50 [2]
CCCN(CCC)S(=O)(=O)c1ccc(NS(=O)(=O)Cc2ccccc2)cc1 [Compound 15] | 85% | does not change | 15 µM | 6.8 µM
CCCc1c(C(=O)N(Cc2ccccc2)Cc2cccs2)cnn1-c1ccccc1 [Compound 32] | 30% |  | 5 µM | 2.5 µM
